Source: US20090239841A1, “Diaryl Ureas as CB1 Antagonists” (priority 2004, published 2009)

Target: T1, hCB1 (Homo sapiens, UniProt P21554)
T1 construct: made in house; host or cells: Sf9 insect cells (baculovirus), P2 membranes
Test: Agonist-induced GTP binding (GTPγ35S) assay at CB1, Example 8
Type: biochemical
Details: IC50 at CB1, determined as described in Example 8; read-out: IC50
How it was run: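 Antagonism read as inhibition of 1 nM CP55,940-stimulated GTPγ35S ([…]) binding, compounds at 10^−10 to 10^−5 M. Baculovirus-infected Sf9 membranes bearing hCB1 plus G-protein subunits, 60 min room-temperature incubation with 5 μM GDP. Filtration and scintillation counting; data as percent over basal.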

T1 sequence (P21554 whole entry): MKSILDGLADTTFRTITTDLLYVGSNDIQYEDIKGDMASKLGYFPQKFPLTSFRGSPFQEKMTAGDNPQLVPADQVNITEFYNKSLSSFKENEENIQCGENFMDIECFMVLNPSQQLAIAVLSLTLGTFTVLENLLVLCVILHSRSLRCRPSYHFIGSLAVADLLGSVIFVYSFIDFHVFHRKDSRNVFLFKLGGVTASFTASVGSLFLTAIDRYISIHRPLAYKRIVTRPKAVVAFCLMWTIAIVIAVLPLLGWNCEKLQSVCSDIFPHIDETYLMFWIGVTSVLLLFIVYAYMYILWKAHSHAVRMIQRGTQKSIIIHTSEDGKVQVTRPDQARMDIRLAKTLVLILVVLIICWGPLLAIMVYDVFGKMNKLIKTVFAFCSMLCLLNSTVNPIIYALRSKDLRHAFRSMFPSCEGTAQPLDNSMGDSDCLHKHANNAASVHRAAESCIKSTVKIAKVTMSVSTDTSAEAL

Compound | IC50
COc1ccc(NC(=O)Nc2ccc(Cl)cc2)cc1 [Compound 383, 1-(4-chlorophenyl)-3-(4-methoxyphenyl)urea] | < 2 µM
CCOc1cccc(NC(=O)Nc2cccc(CC)c2)c1 [Compound 384, 1-(3-ethoxyphenyl)-3-(3-ethylphenyl)urea] | < 2 µM
CCOc1cccc(NC(=O)Nc2ccc(CC)cc2)c1 [Compound 385, 1-(3-ethoxyphenyl)-3-(4-ethylphenyl)urea] | < 2 µM
CCOc1cccc(NC(=O)Nc2ccc(Cl)cc2)c1 [Compound 386, 1-(4-chlorophenyl)-3-(3-ethoxyphenyl)urea] | < 2 µM
CCOc1ccc(NC(=O)Nc2cccc(CC)c2)cc1 [Compound 387, 1-(4-ethoxyphenyl)-3-(3-ethylphenyl)urea] | < 2 µM
CCOc1ccc(NC(=O)Nc2ccc(CC)cc2)cc1 [Compound 388, 1-(4-ethoxyphenyl)-3-(4-ethylphenyl)urea] | < 2 µM
CCOc1ccc(NC(=O)Nc2cccc(Cl)c2)cc1 [Compound 389, 1-(3-chlorophenyl)-3-(4-ethoxyphenyl)urea] | < 2 µM
CCOc1ccc(NC(=O)Nc2ccc(Cl)cc2)cc1 [Compound 390, 1-(4-chlorophenyl)-3-(4-ethoxyphenyl)urea] | < 2 µM
CCc1ccc(NC(=O)Nc2cccc(COC)c2)cc1 [Compound 391, 1-(4-ethylphenyl)-3-[3-(methoxymethyl)phenyl]urea] | < 2 µM
CCc1cccc(NC(=O)Nc2ccc(COC)cc2)c1 [Compound 392, 1-(3-ethylphenyl)-3-[4-(methoxymethyl)phenyl]urea] | < 2 µM
CCc1ccc(NC(=O)Nc2ccc(COC)cc2)cc1 [Compound 393, 1-(4-ethylphenyl)-3-[4-(methoxymethyl)phenyl]urea] | < 2 µM
COCc1ccc(NC(=O)Nc2cccc(Cl)c2)cc1 [Compound 394, 1-(3-chlorophenyl)-3-[4-(methoxymethyl)phenyl]urea] | < 2 µM
COCc1ccc(NC(=O)Nc2ccc(Cl)cc2)cc1 [Compound 395, 1-(4-chlorophenyl)-3-[4-(methoxymethyl)phenyl]urea] | < 2 µM
CCCOc1ccc(NC(=O)Nc2cccc(CC)c2)cc1 [Compound 396, 1-(3-ethylphenyl)-3-(4-propoxyphenyl)urea] | < 2 µM
CCCOc1ccc(NC(=O)Nc2cccc(Cl)c2)cc1 [Compound 397, 1-(3-chlorophenyl)-3-(4-propoxyphenyl)urea] | < 2 µM
CCCOc1ccc(NC(=O)Nc2ccc(Cl)cc2)cc1 [Compound 398, 1-(4-chlorophenyl)-3-(4-propoxyphenyl)urea] | < 2 µM
CCc1cccc(NC(=O)Nc2cccc(OC(C)C)c2)c1 [Compound 399, 1-(3-ethylphenyl)-3-(3-isopropoxyphenyl)urea] | < 2 µM

Now from value to compound:

IC50 | Compound
< 2 µM | O=C(Nc1ccc(F)cc1)Nc1cccc(OC(F)F)c1 [Compound 372, 1-[3-(difluoromethoxy)phenyl]-3-(4-fluorophenyl)urea]
< 2 µM | O=C(Nc1ccc(F)cc1)Nc1ccc(OC(F)F)cc1 [Compound 373, 1-[4-(difluoromethoxy)phenyl]-3-(4-fluorophenyl)urea]
< 2 µM | CCOc1cccc(NC(=O)Nc2ccccc2)c1 [Compound 374, 1-(3-ethoxyphenyl)-3-phenylurea]
< 2 µM | CC(C)Oc1ccc(NC(=O)Nc2ccccc2)cc1 [Compound 375, 1-(4-isopropoxyphenyl)-3-phenylurea]
< 2 µM | O=C(Nc1ccccc1)Nc1cccc(OC(F)F)c1 [Compound 376, 1-[3-(difluoromethoxy)phenyl]-3-phenylurea]
< 2 µM | Cc1ccccc1NC(=O)Nc1cccc(OC(F)F)c1 [Compound 377, 1-[3-(difluoromethoxy)phenyl]-3-(2-methylphenyl)urea]
< 2 µM | CCc1ccccc1NC(=O)Nc1cccc(OC(F)F)c1 [Compound 378, 1-[3-(difluoromethoxy)phenyl]-3-(2-ethylphenyl)urea]
< 2 µM | CCc1ccc(NC(=O)Nc2ccc(OC)cc2)cc1 [Compound 382, 1-(4-ethylphenyl)-3-(4-methoxyphenyl)urea]
